A short description of data set [1]: Hydrolysis of prodrug into acting drug (rebamipide) in whole blood of rat, HPLC. The format is in vitro ADME. Conditions: for half-life at 0.196 mg/mL: half life of conversion from prodrug to rebamipide, read-out: Conversion Time in Whole Rat Blood (t1/2). As to the method:
Frozen rat blood was thawed for about 1 hr in a 37° C. water bath and homogenized.
A stock solution was prepared by dissolving 10 mg of the compound of each Example in 1 mL of CAN. Optionally, a buffer (prepared by mixing 750 mL of a solution of Na2HPO4 0.58 g and KH2PO4 2 g in 1 L of H2O with 250 mL of CAN) was added. In a 4 mL tube, 40 μL of the stock solution was uniformly mixed with 2 mL of blood by shaking, followed by storage at 30 rpm in a water bath.
At 0, 2, 4, 6, 8, 10, 15, 30, 45, 60, 90, and 120 min after storage, a sample was taken in a volume of 200 μL, diluted in 400 μL of CAN, vortexed for 1 min, and centrifuged for 1 min. The supernatant was analyzed by HPLC (but, for the compound of Example 47, sampling was performed at 0, 1, 3, 5, 7, and 10 min after storage). In addition, measurement was made of the time that it took for the prodrugs to be converted into the acting drug (rebamipide).

The conditions of data set [2]: cited from earlier work.
The test system of data set [3] is acetic acid-induced gastric ulcers. Conditions: rats; cited from earlier work.
The conditions of data set [4]: due to low solubility and low intestinal permeability; cited from earlier work.
The conditions of data set [5]: in vivo; cited from earlier work.

Each structure is given as a SMILES string. Entries after “also recorded” stand apart in the source; their conditions may differ. Read-outs that look alike come from different tables or passages of the source.

With `CN(C)CCOC(=O)C(Cc1cc(=O)[nH]c2ccccc12)NC(=O)c1ccc(Cl)cc1` (stereo not drawn) [Example 14, 2-Dimethylaminoethyl 2-(4-chlorobenzoylamino)-3-(2-oxo-1,2-dihydroquinolin-4-yl)propionate], the half-life at 0.196 mg/mL in data set [1] was under 2 min. Still for that read-out and setting: as for `CCN(CC)CCOC(=O)C(Cc1cc(=O)[nH]c2ccccc12)NC(=O)c1ccc(Cl)cc1` (stereo not drawn) [Example 16, 2-Diethylaminoethyl 2-(4-chlorobenzoylamino)-3-(2-oxo-1,2-dihydroquinolin-4-yl)propionate], the figure is under 2 min. Same read-out and setting: next, `O=C(NC(Cc1cc(=O)[nH]c2ccccc12)C(=O)OCCN1CCCCC1)c1ccc(Cl)cc1` (stereo not drawn) [Example 44, 2-Piperidin-1-ylethyl 2-(4-chlorobenzoylamino)-3-(2-oxo-1,2-dihydroquinolin-4-yl)propionate]: under 2 min. As for `O=C(NC(Cc1cc(=O)[nH]c2ccccc12)C(=O)OCCN1CCOCC1)c1ccc(Cl)cc1` (stereo not drawn) [Example 47, 2-Morpholin-4-ylethyl 2-(4-chlorobenzoylamino)-3-(2-oxo-1,2-dihydroquinolin-4-yl)propionate], the “time to complete conversion into rebamipide” value in data set [1] (FIG. 1) is listed as “about 10 min”. The half-life at 0.196 mg/mL in data set [1] is 2.57 min. Consider `CN1CCN(C(=O)COC(=O)C(Cc2cc(=O)[nH]c3ccccc23)NC(=O)c2ccc(Cl)cc2)CC1` (stereo not drawn) [Example 99, 2-(4-Methylpiperazin-1-yl)-2-oxoethyl 2-(4-chlorobenzoylamino)-3-(2-oxo-1,2-dihydroquinolin-4-yl)propionate], for which the half-life at 0.196 mg/mL in data set [1] is under 2 min. Still for that read-out and setting: next, `CCC(OC(=O)C(Cc1cc(=O)[nH]c2ccccc12)NC(=O)c1ccc(Cl)cc1)C(=O)N1CCN(C)CC1` (stereo not drawn) [Example 100, 1-(4-Methylpiperazine-1-carbonyl)propyl 2-(4-chlorobenzoylamino)-3-(2-oxo-1,2-dihydroquinolin-4-yl)propionate]: under 2 min; `CON(C)C(=O)COC(=O)C(Cc1cc(=O)[nH]c2ccccc12)NC(=O)c1ccc(Cl)cc1` (stereo not drawn) [Example 102, (Methoxymethylcarbamoyl)methyl 2-(4-chlorobenzoylamino)-3-(2-oxo-1,2-dihydroquinolin-4-yl)propionate]: under 2 min; `O=C(COC(=O)C(Cc1cc(=O)[nH]c2ccccc12)NC(=O)c1ccc(Cl)cc1)OCCN1CCOCC1` (stereo not drawn) [Example 105, 2-Morpholin-4-yl-ethoxycarbonylmethyl 2-(4-chlorobenzoylamino)-3-(2-oxo-1,2-dihydroquinolin-4-yl)propionate]: under 2 min. Still for that read-out and setting: next, `CCC(OC(=O)C(Cc1cc(=O)[nH]c2ccccc12)NC(=O)c1ccc(Cl)cc1)C(=O)OCCN1CCOCC1` (stereo not drawn) [Example 106, 2-Morpholin-4-ylethyl 2-[2-(4-chlorobenzoylamino)-3-(2-oxo-1,2-dihydroquinolin-4-yl)propionyloxy]butyrate]: under 2 min; `O=C(OCCN1CCOCC1)OCOC(=O)C(Cc1cc(=O)[nH]c2ccccc12)NC(=O)c1ccc(Cl)cc1` (stereo not drawn) [Example 109, 2-Morpholin-4-yl-ethoxycarbonyloxymethyl 2-(4-chlorobenzoylamino)-3-(2-oxo-1,2-dihydroquinolin-4-yl)propionate]: under 2 min.

Take `CCN(CC)CCSC(=O)C(Cc1cc(=O)[nH]c2ccccc12)NC(=O)c1ccc(Cl)cc1` (stereo not drawn) [Example 121, S-(2-Diethylamino)ethyl 2-(4-chlorobenzoylamino)-3-(2-oxo-1,2-dihydroquinolin-4-yl)thiopropionate]: the half-life at 0.196 mg/mL in data set [1] was under 2 min.

In the case of `O=C(NC(Cc1cc(=O)[nH]c2ccccc12)C(=O)SCCN1CCCC1)c1ccc(Cl)cc1` (stereo not drawn) [Example 144, S-(2-Pyrrolidin-1-yl)ethyl 2-(4-chlorobenzoylamino)-3-(2-oxo-1,2-dihydroquinolin-4-yl)thiopropionate], the half-life at 0.196 mg/mL in data set [1] was under 2 min. Same read-out and setting: as for `O=C(NC(Cc1cc(=O)[nH]c2ccccc12)C(=O)SCCN1CCOCC1)c1ccc(Cl)cc1` (stereo not drawn) [Example 151, S-(2-Morpholin-4-yl)ethyl 2-(4-chlorobenzoylamino)-3-(2-oxo-1,2-dihydroquinolin-4-yl)propionate], the figure is under 2 min; as for `Cc1oc(=O)oc1CSC(=O)C(Cc1cc(=O)[nH]c2ccccc12)NC(=O)c1ccc(Cl)cc1` (stereo not drawn) [Example 155, S-(5-Methyl-2-oxo-[1,3]dioxol-4-yl)methyl 2-(4-chlorobenzoylamino)-3-(2-oxo-1,2-dihydroquinolin-4-yl)thiopropionate], under 2 min.

Regarding `O=C(NC(Cc1cc(=O)[nH]c2ccccc12)C(=O)O)c1ccc(Cl)cc1` (stereo not drawn) [Rebamipide], the aqueous solubility entry in data set [2] (pH 3) is recorded as “approximately 0.0001 % (w/v)”; in data set [2] (pH 7) it was “approximately 0.013 % (w/v)”. For the same compound, the “solubility in solvents (in words)” value in data set [2] (solvent named in the value) was “freely soluble in dimethylformamide; also recorded: slightly soluble in methanol and ethanol; also recorded: almost insoluble in ether and water”. Also, in data set [3], the “effect on ulcer size, relapse rate and cure rate” value is “reduces sizes and relapse rates of the ulcer while improving the cure rate”. For the same compound, in data set [4], the BCS class result was “Class IV”. The bioavailability entry in data set [5] was “around 5%”.
